ChEMBL document CHEMBL3621145, “Synthesis of imidazothiadiazolebenzimidazole conjugates as mitochondrial apoptosis inducers” (Medchemcomm, 2014)
Active and inactive are the calls of the source. No cut-off for these calls is given here.

Key:
ME-180 [1] = assay: Anticancer activity against human ME180 cells by MTT assay; assay type: functional, cell-based
A549 = assay: Anticancer activity against human A549 cells by MTT assay; assay type: functional, cell-based
A-375 = assay: Anticancer activity against human A375 cells by MTT assay; assay type: functional, cell-based
DU-145 = assay: Anticancer activity against human DU145 cells by MTT assay; assay type: functional, cell-based
ME-180 [2] = assay: Induction of apoptosis in human ME180 cells assessed as late apoptotic cells at 1 uM for 24 hrs by annexin V/PI staining based flow cytometry (reference value: 5%); assay type: functional
ME-180 [3] = assay: Induction of apoptosis in human ME180 cells assessed as DNA fragmentation at 1 uM after 48 hrs; assay type: functional, cell-based
ME-180 [4] = assay: Induction of apoptosis in human ME180 cells assessed as early apoptotic cells at 1 uM for 24 hrs by annexin V/PI staining based flow cytometry (reference value: 0.2%); assay type: functional
ME-180 [5] = assay: Cell cycle arrest in human ME180 cells assessed as accumulation at SubG1 phase at 1 uM after 48 hrs by FACS analysis (reference value: 7.0%); assay type: functional
ME-180 [6] = assay: Induction to apoptosis in human ME180 cells assessed as increase in caspase-3 activity at 1 uM for 48 hrs relative to control; assay type: functional
ME-180 [7] = assay: Induction of apoptosis in human ME180 cells assessed as viable cells at 1 uM for 24 hrs by annexin V/PI staining based flow cytometry (reference value: 83.1%); assay type: functional; details: ME-180, 24 h, read-out: Activity
ME-180 [8] = assay: Cell cycle arrest in human ME180 cells assessed as accumulation at G1 phase at 1 uM after 48 hrs by FACS analysis (reference value: 59.9%); assay type: functional
ME-180 [9] = assay: Induction of apoptosis in human ME180 cells assessed as necrotic cells at 1 uM for 24 hrs by annexin V/PI staining based flow cytometry (reference value: 11.7%); assay type: functional
ME-180 [10] = assay: Cell cycle arrest in human ME180 cells assessed as accumulation at G2/M phase at <1 uM; assay type: functional, cell-based
ME-180 [11] = assay: Cell cycle arrest in human ME180 cells assessed as accumulation at S phase at 1 uM after 48 hrs by FACS analysis (reference value: 19.3%); assay type: functional
ME-180 [12] = assay: Cell cycle arrest in human ME180 cells assessed as accumulation at G2/M phase at 1 uM after 48 hrs by FACS analysis (reference value: 13.2%); assay type: functional
ME-180 [13] = assay: Cell cycle arrest in human ME180 cells assessed as accumulation at SubG1 phase at 0.5 uM after 48 hrs by FACS analysis (reference value: 7.0%); assay type: functional
ME-180 [14] = assay: Cell cycle arrest in human ME180 cells assessed as accumulation at S phase at 0.5 uM after 48 hrs by FACS analysis (reference value: 19.3%); assay type: functional
ME-180 [15] = assay: Cell cycle arrest in human ME180 cells assessed as accumulation at G2/M phase at 0.5 uM after 48 hrs by FACS analysis (reference value: 13.2%); assay type: functional
ME-180 [16] = assay: Cell cycle arrest in human ME180 cells assessed as accumulation at G1 phase at 0.5 uM after 48 hrs by FACS analysis (reference value: 59.9%); assay type: functional
ME-180 [17] = assay: Induction of apoptosis in human ME180 cells assessed as cytoplasmic condensation at 1 uM for 24 hrs by Hoechst staining analysis; assay type: functional, cell-based
ME-180 [18] = assay: Induction of apoptosis in human ME180 cells assessed as presence of apoptotic bodies at 1 uM for 24 hrs by Hoechst staining analysis; assay type: functional, cell-based
ME-180 [19] = assay: Induction of apoptosis in human ME180 cells assessed as mitochondrial membrane depolarization at 1 uM for 24 hrs by using JC-1 dye; assay type: functional, cell-based
ME-180 [20] = assay: Induction of apoptosis in human ME180 cells assessed as nuclear fragmentation at 1 uM for 24 hrs by Hoechst staining analysis; assay type: functional, cell-based

| IC50 (A549) [µM] | IC50 (A-375) [µM] | IC50 (DU-145) [µM] | SMILES | IC50 (ME-180 [1]) [µM] | other results |
| --- | --- | --- | --- | --- | --- |
| > 30 | 17.7 | > 30 | Cc1nn2c(-c3nc4cc(Cl)c(F)cc4[nH]3)c(-c3ccc(F)cc3)nc2s1 | 13.9 | – |
| 16.9 | 7.7 | 25.1 | Cc1nn2c(-c3nc4cc(Cl)ccc4[nH]3)c(-c3ccccc3)nc2s1 | 5.4 | – |
| > 30 | 18.1 | 16.9 | Cc1nn2c(-c3nc4cc(F)ccc4[nH]3)c(-c3ccccc3)nc2s1 | 15.7 | – |
| 10.3 | 1.04 | 11.8 | Cc1ccc(-c2nc3sc(C)nn3c2-c2nc3cc(Cl)c(F)cc3[nH]2)cc1 | 0.7 | Activity (ME-180 [13]): 14.1%; Activity (ME-180 [14]): 12.3%; Activity (ME-180 [2]): 16.5%; Activity (ME-180 [15]): 6.7%; Activity (ME-180 [3]): Active; Activity (ME-180 [4]): 0.8%; Activity (ME-180 [5]): 11.6%; fold change (FC) (ME-180 [6]): 3; Activity (ME-180 [16]): 66.6%; viability at 1 µM (ME-180 [7]): 73.1%; Activity (ME-180 [17]): Active; Activity (ME-180 [18]): Active; Activity (ME-180 [8]): 75.7%; Activity (ME-180 [19]): Active; Activity (ME-180 [9]): 9.6%; Activity (ME-180 [20]): Active; Activity (ME-180 [11]): 10.1%; Activity (ME-180 [12]): 2.3% |
| 16.4 | 20.8 | > 30 | Cc1nn2c(-c3nc4cc(Cl)c(F)cc4[nH]3)c(-c3ccccc3)nc2s1 | 16.9 | – |
| > 30 | 22.5 | 19.8 | Cc1nn2c(-c3nc4cc(C)c(C)cc4[nH]3)c(-c3ccccc3)nc2s1 | 19.9 | – |
| 17.9 | 6.8 | > 30 | COc1ccc(-c2nc3sc(C)nn3c2-c2nc3cc(Cl)c(F)cc3[nH]2)cc1 | 4.6 | – |
| 13.6 | 2.8 | 19.1 | Cc1nn2c(-c3nc4cc(Cl)c(Cl)cc4[nH]3)c(-c3ccccc3)nc2s1 | 0.5 | Activity (ME-180 [13]): 5.4%; Activity (ME-180 [14]): 15.7%; Activity (ME-180 [2]): 22.6%; Activity (ME-180 [15]): 10.4%; Activity (ME-180 [3]): Active; Activity (ME-180 [4]): 1%; Activity (ME-180 [5]): 16.3%; fold change (FC) (ME-180 [6]): 3; Activity (ME-180 [16]): 68.1%; viability at 1 µM (ME-180 [7]): 58.7%; Activity (ME-180 [17]): Active; Activity (ME-180 [18]): Active; Activity (ME-180 [8]): 72.4%; Activity (ME-180 [19]): Active; Activity (ME-180 [9]): 17.7%; Activity (ME-180 [20]): Active; Activity (ME-180 [11]): 9.3%; Activity (ME-180 [12]): 1.6% |
| 12.5 | 20.4 | 14.4 | Cc1ccc2[nH]c(-c3c(-c4ccccc4)nc4sc(C)nn34)nc2c1 | 15.8 | – |

Further lines, the molecule ahead of its results:

| SMILES | IC50 (A549) [µM] | IC50 (A-375) [µM] | IC50 (DU-145) [µM] | IC50 (ME-180 [1]) [µM] | other results |
| --- | --- | --- | --- | --- | --- |
| Cc1ccc2[nH]c(-c3c(-c4ccc(F)cc4)nc4sc(C)nn34)nc2c1 | 11.7 | 7.7 | 19.9 | 6.6 | – |
| COc1cccc2c1C(=O)c1c(O)c3c(c(O)c1C2=O)C[C@@](O)(C(=O)CO)C[C@@H]3O[C@H]1C[C@H](N)[C@H](O)[C@H](C)O1 [DOXORUBICIN] | 1.1 | 1.2 | 2.4 | 0.5 | Activity (ME-180 [2]): 15.1%; Activity (ME-180 [3]): Active; Activity (ME-180 [4]): 0.7%; Activity (ME-180 [5]): 7.7%; fold change (FC) (ME-180 [6]): 3; viability at 1 µM (ME-180 [7]): 67.5%; Activity (ME-180 [8]): 64.8%; Activity (ME-180 [9]): 16.8%; Activity (ME-180 [10]): Active; Activity (ME-180 [11]): 16.1%; Activity (ME-180 [12]): 10.9% |
| Cc1nn2c(-c3nc4c(C)c(C)ccc4[nH]3)c(-c3ccccc3)nc2s1 | 18.4 | 22.9 | > 30 | 15.8 | – |
| COc1ccc(-c2nc3sc(C)nn3c2-c2nc3cc(C)ccc3[nH]2)cc1 | 18.4 | 10.9 | 25.1 | 8.7 | – |
| Cc1nn2c(-c3nc4cc(Cl)c(Cl)cc4[nH]3)c(-c3ccc(F)cc3)nc2s1 | > 30 | 14.2 | > 30 | 10 | – |
| Cc1nn2c(-c3nc4ccccc4[nH]3)c(-c3ccc(F)cc3)nc2s1 | > 30 | 22.2 | > 30 | 18.1 | – |
| Cc1nn2c(-c3nc4cc(C(F)(F)F)ccc4[nH]3)c(-c3ccccc3)nc2s1 | 13.6 | 5.2 | 19.6 | 3.9 | – |
| Cc1ccc(-c2nc3sc(C)nn3c2-c2nc3cc(C)ccc3[nH]2)cc1 | 9.8 | 6.1 | 10.7 | 4.5 | – |
| Cc1nn2c(-c3nc4cc(C(F)(F)F)ccc4[nH]3)c(-c3ccc(F)cc3)nc2s1 | 12.7 | 7.3 | 15.8 | 5.8 | – |
| COC(=O)Nc1nc2cc(C(=O)c3cccs3)ccc2[nH]1 [NOCODAZOLE] | 2.5 | 0.2 | 2.1 | 1.7 | – |
| Cc1ccc(-c2nc3sc(C)nn3c2-c2nc3c(C)c(C)ccc3[nH]2)cc1 | 10.3 | 11.4 | 12.5 | 9.7 | – |
| Cc1ccc(-c2nc3sc(C)nn3c2-c2nc3cc(Cl)ccc3[nH]2)cc1 | 4.4 | 5.01 | 7.3 | 3.6 | – |
| Cc1nn2c(-c3nc4cc(Cl)ccc4[nH]3)c(-c3ccc(F)cc3)nc2s1 | 10.2 | 4.8 | 14.4 | 1.9 | – |
| COc1ccc(-c2nc3sc(C)nn3c2-c2nc3cc(Cl)ccc3[nH]2)cc1 | 7.9 | 4.3 | 15.8 | 2.6 | – |
| Cc1nn2c(-c3nc4ccccc4[nH]3)c(-c3ccccc3)nc2s1 | 16.6 | 19.9 | > 30 | 16.9 | – |
| Cc1nn2c(-c3nc4cc(O)ccc4[nH]3)c(-c3ccccc3)nc2s1 | 19.4 | 19.1 | 20.6 | 16.4 | – |
| COc1ccc(-c2nc3sc(C)nn3c2-c2nc3c(C)c(C)ccc3[nH]2)cc1 | 16.2 | 5.8 | 14.2 | 3.7 | – |
| Cc1nn2c(-c3nc4cc(C)c(C)cc4[nH]3)c(-c3ccc(F)cc3)nc2s1 | > 30 | 7.6 | > 30 | 6.1 | – |
| COc1ccc(-c2nc3sc(C)nn3c2-c2nc3cc(C)c(C)cc3[nH]2)cc1 | 16.5 | 12.5 | 23.3 | 12.3 | – |
